In patent publication US11022604B2, “Dock derived compound against laminin receptor (37 LR) and uses thereof” (Purdue Research Foundation, priority 2017, dated 2021):

Experiments:
[1] = test system: SH-SY5Y neuroblastoma cells; test: Cell viability screen (CCK-8), SH-SY5Y cells; assay type: cell-based; details: Homo sapiens, CCK-8, 96 hours, read-out: IC50, inhibition of cell viability
Procedure: FIGS. 2A-2H. Dose response curves. Does response curves for cell lines treated with 6, 10.5, 18.6, 32.4, 57.5 and 100 μM of compound (log) for 96 hours using % cell viability derived from CCK-8 absorbance readings at 450 nm (n=3, mean±SEM). A DMSO equivalent control (n=2±SEM) was also included for each cell line tested: Ea.hy.926 endothelial cells (Endo), LNCaP androgen dependent metastatic prostate cancer cells, TC2-Ras mouse prostate cancer cells, PC-3 androgen independent metastatic prostate cancer cells, and SH-SY5Y neruoblastoma cells. […]
Cell Viability Screen. […] Cell viability was measured by using the cell counting kit-8 (CCK-8, Dojindo). […] CCK-8 absorbance was measured at 450 nm using a GloMax Multimode Reader (Promega). Readings were performed the day after seeding to normalize for variations in cell seeding and after 96 hours of compound treatment. After each reading, CCK-8 media was removed and replaced with media containing compound as described previously. […] As described previously, an initial baseline CCK-8 reading was performed at 24 hours post seeding to correct for variations in seeding density. First, 450 nm values for each well were subtracted from media only readings to correct for baseline absorbance. Then, the 96 hour readings were normalized to their respective 24 hour readings to control for seeding variation. […]

THP-1 human monocytes = test: Inflammatory gene expression (qPCR) in LPS-stimulated THP-1 macrophages; assay type: cell-based
Procedure: FIG. 17—Fold change in inflammatory gene expression when THP-1 monocytes are treated with Compounds of Interest. […] PL, PMA-differentiated and treated with LPS. P18, PEDF peptide. (*, p<0.05 relative to PL)
Cell Culture. THP-1 human monocytes were purchased from ATCC (Manassas, Va.) and cultured in DMEM/10% FBS/1% Anti-Anti (Gibco). The monocytes were differentiated into macrophages with 5 ng/ml […] (PMA) for 48 h and pretreated with drugs for 6 h. Lipopolysaccharide (LPS, 10 ng/ml) stimulation was performed for 1 h and cells were collected for assays. Human adipose-derived mesenchymal stromal/stem cells (ASC) were purchased from LaCell, LLC (Metairie, La.) and grown on fibronectin-coated plates in MCDB-201/DMEM/10% FBS media. RNA isolation and qPCR. RNA was isolated from cell pellets using an RNAeasy kit (Qiagen) according to manufacturers' specifications for tissue samples. 1 μg RNA was reverse transcribed using a AmfiRivert kit (Genedepot) and 2 μl used in a SYBR green quantitative PCR reaction for detecting differences in gene expression relative to beta-actin control. Luciferase Assays. THP-1 human monocytes were seeded in OptiMEM/1% anti-anti (Gibco) and transfected using Lipofectamine LTX (Invitrogen, Carlsbad, Calif.) in a 96-well format in white opaque plates. […] The samples were read in a BiotekNeo (Bindley Bioscience Center). […]

- IC50 [1]: 18.6 µM
Structure (SMILES): O=C(c1cc(F)cc2c1OCOC2)N1CCN(C2c3ccccc3-c3ccccc32)CC1 [Compound C3, [4-(9h-fluoren-9-yl)piperazino](6-fluoro-4h-1,3-benzodioxin-8-yl)methanone]
- reduction of IL-1β expression (THP-1 human monocytes): ~8 fold
